Where two headings read alike, the source gives them in different places.
Key:
[1] = molecular target: recombinant human A2A receptors (Homo sapiens, UniProt P29274); experiment: Radioligand competition binding to recombinant human A2A receptors in Sf9 cell membranes
A3 AR = molecular target: T1, A3 AR (Homo sapiens, UniProt P0DMS8); experiment: Radioligand competition binding (125I-ABA) to human A3 AR in HEK 293 cell membranes; conditions: for Ki: Ki from competition binding, 125I-ABA, HEK 293 cell membranes; for A3/A2A: selectivity ratio A3 over A2A
T1 sequence (P0DMS8 1-318): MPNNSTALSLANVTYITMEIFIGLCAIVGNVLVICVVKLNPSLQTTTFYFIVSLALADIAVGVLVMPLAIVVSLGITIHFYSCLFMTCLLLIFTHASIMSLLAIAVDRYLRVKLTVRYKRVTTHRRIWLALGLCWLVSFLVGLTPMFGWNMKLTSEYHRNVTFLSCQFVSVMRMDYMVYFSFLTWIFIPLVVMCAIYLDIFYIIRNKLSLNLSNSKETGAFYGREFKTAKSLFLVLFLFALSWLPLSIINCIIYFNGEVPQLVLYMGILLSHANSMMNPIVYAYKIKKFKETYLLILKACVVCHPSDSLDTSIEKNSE

human A1 AR = molecular target: T2, human A1 AR (Homo sapiens, UniProt P30542); experiment: Radioligand competition binding (125I-ABA) to human A1 AR in CHO K1 cell membranes; conditions: for Ki: Ki from competition binding, 125I-ABA, CHO K1 cell membranes; for A1/A2A: selectivity ratio A1 over A2A
T2 sequence (P30542 1-326): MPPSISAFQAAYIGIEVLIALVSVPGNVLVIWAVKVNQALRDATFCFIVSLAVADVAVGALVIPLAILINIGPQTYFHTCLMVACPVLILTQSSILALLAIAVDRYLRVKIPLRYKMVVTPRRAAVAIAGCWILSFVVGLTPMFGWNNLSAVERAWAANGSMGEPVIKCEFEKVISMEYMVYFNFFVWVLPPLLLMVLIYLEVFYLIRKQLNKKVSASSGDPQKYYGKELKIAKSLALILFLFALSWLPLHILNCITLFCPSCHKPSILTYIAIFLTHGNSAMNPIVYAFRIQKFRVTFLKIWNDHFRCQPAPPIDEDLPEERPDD

human neutrophils = experiment: Human neutrophil oxidative activity, luminol-enhanced chemiluminescence; type: cell-based
Experimental: Chemiluminescence Methods: Lumninol enhanced chemiluminescence, a measure of neutrophil oxidative activity, is dependent upon both superoxide production and mobilization of the granule enzyme myeloperoxidase. The light is emitted from unstable high-energy oxygen species such as hypochlorous acid and singlet oxygen generated by activated neutrophils.
The plate was incubated 5 min (37 C) and then fMLP (50 l in HA; final concentration […]) was added to all wells.
Data are presented as peak chemiluminescence as percent of activity in the absence of an adenosine agonist. The EC50 was determined using PRISM software. All compounds were tested with PMNs from three separate donors.
Lummol-enhanced chemiluminescence, a measure of neutrophil oxidative activity, is dependent upon both superoxide production and mobilization of the lysosomal granule enzyme myeloperoxidase. The light is emitted from unstable high-energy oxygen species generated by activated neutrophils. Purified neutrophils (5-10×10^5/ml) were incubated in Hanks balanced salt solution containing 0.1% human serum albumin (1 ml) with the tested A2A agonist with or without rolipram and with or without tumor necrosis factor-alpha (1 U/ml) for 30 minutes at 37° C. in a shaking water bath. […] Chemiluminescence is reported as relative peak light emitted (=height of the curve) compared to samples with tumor necrosis factor-alpha and without agonist or rolipram.

[2] = A2A ± SEM, Ki from competition binding, Sf9 cell membranes
[3] = human neutrophil experiment w/Rolipram
[4] = human neutrophil experiment w/o Rolipram
[5] = read-out: A2A ± SEM, Ki from competition binding, Sf9 cell membranes
[6] = human neutrophil experiment w/o Rolipram, read-out: PMN oxid (-log EC50) (converted)
[7] = Homo sapiens, Neutrophil, human neutrophil experiment w/o Rolipram, read-out: PMN oxid (-log EC50) (converted)

recombinant human A2A receptors, sequence (P29274 whole entry): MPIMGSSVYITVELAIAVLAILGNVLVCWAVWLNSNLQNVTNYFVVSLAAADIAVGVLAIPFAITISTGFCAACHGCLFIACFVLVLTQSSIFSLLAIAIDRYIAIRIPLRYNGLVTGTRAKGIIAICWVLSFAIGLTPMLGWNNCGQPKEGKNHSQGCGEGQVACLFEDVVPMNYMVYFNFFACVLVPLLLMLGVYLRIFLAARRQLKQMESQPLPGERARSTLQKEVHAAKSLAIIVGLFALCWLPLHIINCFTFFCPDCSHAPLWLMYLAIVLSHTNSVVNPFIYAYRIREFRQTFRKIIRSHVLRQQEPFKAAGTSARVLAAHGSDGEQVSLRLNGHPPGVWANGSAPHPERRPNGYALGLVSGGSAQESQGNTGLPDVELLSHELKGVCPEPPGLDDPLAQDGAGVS

| Ki [1, 2] | Ki (A3 AR; A3 ± SEM) | A3/A2A (A3 AR) | Ki (human A1 AR; A1 ± SEM) | A1/A2A (human A1 AR) | PMN oxid + roli (-log EC50) (human neutrophils; [3]) | PMN oxid (-log EC50) (human neutrophils; [4]) | SMILES | further results |
| --- | --- | --- | --- | --- | --- | --- | --- | --- |
| 1.3 ± 0.8 nM | 39 ± 3 nM | 30.0 | 99 ± 27 nM | 76.2 | 8.7 | 7.65 | CCNC(=O)[C@H]1O[C@@H](n2cnc3c(N)nc(C#CCC4CCC(C)(C(=O)OC)CC4)nc32)C(O)C1O (single isomer, unassigned) [JR-3067A, 4-{3-[6-Amino-9-(5-ethylcarbamoyl-3,4-dihydroxytetrahydrofuran-2-yl)-9H-purin-2-yl]-prop-2-ynyl}-1-methyl-cyclohexanecarboxylic acid methyl ester] | – |
| 4 ± 0.2 nM | 212 ± 95 nM | 53.0 | 121 ± 44 nM | 30.3 | 8.2 | 6.83 | CCNC(=O)[C@H]1O[C@@H](n2cnc3c(N)nc(C#CCC4CCC(C)(C(=O)OC)CC4)nc32)C(O)C1O (single isomer, unassigned) [JR-3067B, 4-{3-[6-Amino-9-(5-ethylcarbamoyl-3,4-dihydroxytetrahydrofuran-2-yl)-9H-purin-2-yl]-prop-2-ynyl}-1-methyl-cyclohexanecarboxylic acid methyl ester] | – |
| – | – | 6.6 | – | 1.4 | 9.34 | 8.43 | CCNC(=O)C1OC(n2cnc3c(N)nc(C#CC(O)C4CCCCC4)nc32)C(O)C1O (single isomer, unassigned) [JR-3159A] | Ki [1, 5]: 0.6 ± 0.06 nM; Ki (A3 AR; read-out: A3 ± SEM): 3.9 ± 1.5 nM; Ki (human A1 AR; read-out: A1 ± SEM): 0.9 ± 0.05 nM |
| – | – | 7.4 | – | 5.7 | 10.36 | 9.44 | CCNC(=O)C1OC(n2cnc3c(N)nc(C#CC(O)C4CCCCC4)nc32)C(O)C1O (single isomer, unassigned) [JR-3159B] | Ki [1, 5]: 0.4 ± 0.07 nM; Ki (A3 AR; read-out: A3 ± SEM): 2.6 ± 0.3 nM; Ki (human A1 AR; read-out: A1 ± SEM): 2 ± 0.21 nM |
| 1.2 ± 0.35 nM | 6.7 ± 0.3 nM | 5.5 | 8.7 ± 0.07 nM | 7.1 | 9.03 | 7.53 | CCNC(=O)[C@H]1O[C@@H](n2cnc3c(N)nc(C#CC4(O)CCCCC4C)nc32)C(O)C1O (single isomer, unassigned) [JR-3177A, 5-[6-Amino-2-(1-hydroxy-2-methyl-cyclohexylethynyl)-purin-9-yl]-3,4-dihydroxytetrahydrofuran-2-carboxylic acid ethylamide] | – |
| 0.7 ± 0.07 nM | 7.5 ± 4.5 nM | 11.2 | 15.5 ± 0.7 nM | 23.1 | 9.45 | 8.5 | CCNC(=O)[C@H]1O[C@@H](n2cnc3c(N)nc(C#CC4(O)CCCCC4C)nc32)C(O)C1O (single isomer, unassigned) [JR-3177B, 5-[6-Amino-2-(1-hydroxy-2-methyl-cyclohexylethynyl)-purin-9-yl]-3,4-dihydroxytetrahydrofuran-2-carboxylic acid ethylamide] | – |
| 1.2 ± 0.15 nM | 69.7 ± 43 nM | 59.1 | 44.9 ± 17.2 nM | 38.1 | 8.77 | 7.73 | CCNC(=O)[C@H]1O[C@@H](n2cnc3c(N)nc(C#CC4(O)CCCCC4C)nc32)C(O)C1O (single isomer, unassigned) [JR-3181A, 5-[6-Amino-2-(1-hydroxy-2-methyl-cyclohexylethynyl)-purin-9-yl]-3,4-dihydroxytetrahydrofuran-2-carboxylic acid ethylamide] | – |
| – | 3.5 ± 1.2 nM | – | 5 ± 1.3 nM | – | 9.6 | – | CCNC(=O)[C@H]1O[C@@H](n2cnc3c(N)nc(C#CC4(O)CCCC4)nc32)C(O)C1O (stereo in doubt) [JR-3135, 5-[6-Amino-2-(1-hydroxy-cyclopentylethynyl)-purin-9-yl]-3,4-dihydroxytetrahydrofuran-2-carboxylic acid ethylamide] | EC50 (human neutrophils; [7]): 1.26 nM |
| – | – | 0.0 | – | 0.0 | – | – | CCNC(=O)[C@H]1O[C@@H](n2cnc3c(N)nc(C#CCN4CC5CC4CN5C(=O)OC(C)(C)C)nc32)C(O)C1O (stereo in doubt) [JR-4015, 5-{3-[6-Amino-9-(5-ethylcarbamoyl-3,4-dihydroxytetrahydrofuran-2-yl)-9H-purin-2-yl]prop-2-ynyl}-2,5-diazabicyclo[2.2.1]heptane-2-carboxylic acid tert-butyl ester] | Ki [1]: 4.25 ± 1 nM |
| 2.7 nM | – | – | – | – | – | – | CCNC(=O)[C@H]1O[C@@H](n2cnc3c(N)nc(C#CC[C@H]4CC[C@H](COC(=O)OCc5ccccc5)CC4)nc32)C(O)C1O (stereo partly drawn) [ATL216, N-Ethyl 2-{3-[trans-4-(benzoxycarbonyloxamethyl)-cyclohexyl]-1-propyn-1-yl}adenosine-5′-uronamide] | EC50 (human neutrophils; [7]): 13 nM |
| – | – | – | – | – | 7.26 | – | OC[C@H]1O[C@@H](n2cnc3c(NC4CCCC4)nc(Cl)nc32)[C@H](O)[C@@H]1O [CCPA, 2-chloro-N^6-cyclopentyladenosine, reference compound] | EC50 (human neutrophils; [6]): 4270 nM |
| – | – | – | – | – | – | – | CCNC(=O)[C@H]1O[C@@H](n2cnc3c(N)nc(NCCc4ccc(CCC(=O)O)cc4)nc32)[C@H](O)[C@@H]1O [CGS-21680, 2-[4-(2-carboxyethyl)phenethylamino]-5′-N-ethyl-carboxamidoadenosine, reference compound] | EC50 (human neutrophils; Homo sapiens, Neutrophil, human neutrophil experiment w/Rolipram, read-out: PMN oxid + roli (-log EC50) (converted)): 2.82 nM; EC50 (human neutrophils; [7]): 30.2 nM |
| – | – | – | – | – | – | – | CNC(=O)[C@H]1O[C@@H](n2cnc3c(NCc4cccc(I)c4)nc(Cl)nc32)[C@H](O)[C@@H]1O [CI-IBMECA, N^6-3-iodo-2-chlorobenzyladenosine-5′-N-methyluronamide, reference compound] | EC50 (human neutrophils; [6]): 45700 nM |
| – | 93 ± 7 nM | – | – | – | 7.06 | – | OC[C@H]1O[C@@H](n2cnc3c(NC4CCCC4)ncnc32)[C@H](O)[C@@H]1O [CPA, N^6-cyclopentyladenosine, reference compound] | Ki ([1]; A2A ± SEM): 19.8 ± 3.2 nM; EC50 (human neutrophils; [7]): 93300 nM |
| – | – | – | – | – | 8.01 | – | CNC(=O)[C@H]1O[C@@H](n2cnc3c(NCc4cccc(I)c4)ncnc32)[C@H](O)[C@@H]1O [IBMECA, N^6-3-iodobenzyladenosine-5′-N-methyluronamide, reference compound] | EC50 (human neutrophils; [6]): 324 nM |

| SMILES | Ki [1, 2] | Ki (A3 AR; A3 ± SEM) | A3/A2A (A3 AR) | Ki (human A1 AR; A1 ± SEM) | A1/A2A (human A1 AR) | PMN oxid + roli (-log EC50) (human neutrophils; [3]) | PMN oxid (-log EC50) (human neutrophils; [4]) | further results |
| --- | --- | --- | --- | --- | --- | --- | --- | --- |
| CCNC(=O)[C@H]1O[C@@H](n2cnc3c(N)nc(C#CCC4CCC(C(=O)OC)CC4)nc32)C(O)C1O (stereo in doubt) [ATL-146e, 4-{3-[6-Amino-9-(5-ethylcarbamoyl-3,4-dihydroxytetrahydrofuran-2-yl)-9H-purin-2-yl]-prop-2-ynyl}-cyclohexanecarboxylic acid methyl ester] | – | 45 ± 15 nM | 90.0 | 77 ± 12 nM | 154.0 | 9.33 | – | EC50 (human neutrophils; [6]): 3.55 nM |
| CCNC(=O)[C@H]1O[C@@H](n2cnc3c(N)nc(C#CC[C@H]4CC[C@H](COC(=O)OCC(C)C)CC4)nc32)C(O)C1O (stereo partly drawn) [ATL215, N-Ethyl 2-{3-[trans-4-(isobutoxyoxycarbonyloxamethyl)-cyclohexyl]-1-propyn-1-yl}adenosine-5′-uronamide] | 4.8 nM | – | – | – | – | – | – | EC50 (human neutrophils; [7]): 20 nM |
| CCNC(=O)[C@H]1O[C@@H](n2cnc3c(N)ncnc32)[C@H](O)[C@@H]1O [NECA, 5′-N-ethylcarboxamidoadenosine, reference compound] | – | – | – | – | – | 8.95 | – | EC50 (human neutrophils; [6]): 15.1 nM |
